What follows are molecules tested against Epidermal growth factor receptor (Homo sapiens, UniProt P00533) (assay: Inhibition of EGFR (unknown origin)).
Epidermal growth factor receptor, sequence (P00533 whole entry): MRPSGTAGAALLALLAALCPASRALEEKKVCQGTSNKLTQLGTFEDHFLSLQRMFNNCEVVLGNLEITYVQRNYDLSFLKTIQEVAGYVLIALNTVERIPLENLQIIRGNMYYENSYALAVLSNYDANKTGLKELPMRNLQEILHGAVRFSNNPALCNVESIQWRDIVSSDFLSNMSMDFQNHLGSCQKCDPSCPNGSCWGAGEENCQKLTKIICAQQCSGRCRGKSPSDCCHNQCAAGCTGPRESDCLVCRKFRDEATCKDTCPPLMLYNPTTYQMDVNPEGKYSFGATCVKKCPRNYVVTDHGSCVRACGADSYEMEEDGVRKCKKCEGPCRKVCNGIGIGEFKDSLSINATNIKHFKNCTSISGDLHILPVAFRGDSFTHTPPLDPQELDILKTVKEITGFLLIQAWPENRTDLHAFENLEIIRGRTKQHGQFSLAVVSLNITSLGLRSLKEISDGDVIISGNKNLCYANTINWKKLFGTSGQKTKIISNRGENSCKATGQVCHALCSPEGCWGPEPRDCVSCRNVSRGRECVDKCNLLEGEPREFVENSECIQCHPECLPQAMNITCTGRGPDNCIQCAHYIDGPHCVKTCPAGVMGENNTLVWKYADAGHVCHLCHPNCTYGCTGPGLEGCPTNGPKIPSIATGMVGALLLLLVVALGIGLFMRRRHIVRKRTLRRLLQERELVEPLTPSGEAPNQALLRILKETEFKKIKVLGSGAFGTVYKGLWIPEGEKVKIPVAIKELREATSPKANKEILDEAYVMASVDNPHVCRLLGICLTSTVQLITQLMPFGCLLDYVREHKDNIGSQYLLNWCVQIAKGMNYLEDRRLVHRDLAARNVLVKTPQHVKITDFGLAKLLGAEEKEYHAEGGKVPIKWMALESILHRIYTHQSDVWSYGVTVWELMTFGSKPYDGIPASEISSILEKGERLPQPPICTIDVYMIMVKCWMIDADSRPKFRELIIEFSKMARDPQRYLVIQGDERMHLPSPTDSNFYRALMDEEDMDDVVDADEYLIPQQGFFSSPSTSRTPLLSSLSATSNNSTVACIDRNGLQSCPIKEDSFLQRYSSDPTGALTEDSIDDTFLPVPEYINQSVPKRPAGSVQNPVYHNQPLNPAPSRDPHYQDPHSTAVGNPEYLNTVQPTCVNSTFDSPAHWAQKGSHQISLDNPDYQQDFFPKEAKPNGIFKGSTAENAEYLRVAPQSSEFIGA

IC50 [nM]	SMILES
960	COCC#CC(=O)Nc1ccc2ncc(C#N)c(Nc3cccc(Br)c3)c2c1
930	COCCOCC#CC(=O)Nc1ccc2ncc(C#N)c(Nc3cccc(Br)c3)c2c1
190	CC#CC(=O)Nc1cc2c(Nc3cccc(Br)c3)c(C#N)cnc2cc1OC
90	COc1cc2ncc(C#N)c(Nc3cccc(Br)c3)c2cc1NC(=O)C#CCN(C)C
150	COC[C@@H]1CCCN1CC#CC(=O)Nc1ccc2ncc(C#N)c(Nc3cccc(Br)c3)c2c1
560	C=C(CN(C)C)C(=O)Nc1cc2c(Nc3ccc(F)c(Cl)c3)c(C#N)cnc2cc1OCC
130	CCCNCC#CC(=O)Nc1ccc2ncc(C#N)c(Nc3cccc(Br)c3)c2c1
790	COc1cc2ncc(C#N)c(Nc3cccc(Br)c3)c2cc1NC(=O)/C=C/CN(C)C
590	C=CC(=O)Nc1ccc2ncc(C#N)c(Nc3cccc(Br)c3)c2c1
940	CC#CC(=O)Nc1ccc2ncc(C#N)c(Nc3cccc(Br)c3)c2c1
310	CN(C)C/C=C/C(=O)Nc1ccc2ncc(C#N)c(Nc3cccc(Br)c3)c2c1
650	CN(C)C/C=C/C(=O)Nc1ccc2ncc(C#N)c(Nc3ccc(F)c(Cl)c3)c2c1
810	C=CC(=O)Nc1cc2c(Nc3cccc(Br)c3)c(C#N)cnc2cc1OC
791	COCC#CC(=O)Nc1cc2c(Nc3cccc(Br)c3)c(C#N)cnc2cc1OC

SMILES	IC50 [nM]
N#Cc1cnc2ccc(NC(=O)C#CCN3CCSCC3)cc2c1Nc1cccc(Br)c1	550
